Like-named read-outs stand apart in the source and are kept apart here.
Columns and labels:
[1] = system: cyclo-oxygenase; assay: Anti-cyclooxygenase activity; format: cell-based
Method: (§1) The activity inhibiting cyclo-oxygenase was determined in isolated cells. Endothelial cells of bovine aorta were used as a source of COX-1 and macrophage line J774.2 as a source of COX-2. The same conditions described by Mitchell et al. (Proc. Nat. Acad. Sci. 90, 11693, 1993) for growth and the viability test were used.
(§2) In brief, the cells were incubated for 30 minutes with scalar concentrations of the test product and the substrate (arachidonic acid) was then added and incubated for another 15 minutes. Enzyme activity was determined radioimmunologically by measuring the formation of 6-keto-PGF 1 alpha. In the case of cell lines J.774.2, the cells were incubated for 12 hours with endotoxin to promote COX-2 formation.
(§3) Example of the anti-cyclooxygenase (I), platelet anti-aggregating (II) and vasodilative (III) properties of the test compounds tested in vitro at concentrations in the molar range from 10^-5 to 10^-7 of the product in water/alcohol with the addition of small amounts of DMSO (dimethylsulphoxide). The activities are expressed as the potency ratio versus the natural product used as a unit standard, as stated in Table

[2] = system: Swiss mice; assay: Analgesic activity (Hendershot et al.); format: in vivo; conditions: oral 3 to 30 mg/Kg in carboxymethylcellulose, natural product = 1.0
Method: (§6) Study of the anti-inflammatory (I) and analgesic (II) properties (pharmacodynamics) and gastrointestinal tolerance (III) (toxicity) of the test compounds after oral administration of doses ranging from 3 to 30 mg/Kg in carboxymethylcellulose suspensions and constructing dose-responsecurves. […] Activities are expressed as the potency ratio compared to the natural product used as a unit standard.

[3] = system: gastropathy; assay: Gastric tolerance, severity of induced gastropathy; conditions: rats, oral 3 to 30 mg/Kg in carboxymethylcellulose; natural product = 1.0
Method: Gastric tolerance was measured by oral administration to rats assessing the severity of the gastropathy induced in accordance with the criteria described by Wallace et al. (Am. J. Physiol. 259, G642, 1990).
Study of the anti-inflammatory (I) and analgesic (II) properties (pharmacodynamics) and gastrointestinal tolerance (III) (toxicity) of the test compounds after oral administration of doses ranging from 3 to 30 mg/Kg in carboxymethylcellulose suspensions and constructing dose-responsecurves.
Activities are expressed as the potency ratio compared to the natural product used as a unit standard. The nitroderivative is that of the shown examples, the natural reference compound is that shown as a reference.

[4] = biological target: T1, COX-2 (Mus musculus, UniProt Q05769); assay: COX-2 inhibition in isolated cells; format: cell-based
T1 construct: endogenous in cells; host or cells: J774.2 macrophages, 12 h with endotoxin
T1 sequence (Q05769 18-604): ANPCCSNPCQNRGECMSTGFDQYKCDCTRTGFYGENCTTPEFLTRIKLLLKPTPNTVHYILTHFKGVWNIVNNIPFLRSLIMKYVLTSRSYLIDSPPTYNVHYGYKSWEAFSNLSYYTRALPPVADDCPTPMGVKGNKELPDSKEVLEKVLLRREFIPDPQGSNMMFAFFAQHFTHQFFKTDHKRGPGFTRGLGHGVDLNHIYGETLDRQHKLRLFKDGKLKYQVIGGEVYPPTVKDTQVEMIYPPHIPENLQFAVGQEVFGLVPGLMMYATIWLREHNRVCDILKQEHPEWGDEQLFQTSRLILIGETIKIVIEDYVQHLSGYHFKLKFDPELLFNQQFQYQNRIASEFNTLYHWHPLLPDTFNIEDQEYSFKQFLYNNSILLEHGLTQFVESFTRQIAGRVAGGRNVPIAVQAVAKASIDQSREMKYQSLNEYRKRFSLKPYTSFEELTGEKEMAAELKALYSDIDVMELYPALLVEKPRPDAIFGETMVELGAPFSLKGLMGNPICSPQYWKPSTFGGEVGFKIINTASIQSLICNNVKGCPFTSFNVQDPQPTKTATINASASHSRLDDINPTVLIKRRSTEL
Method: as §1, §2
(§4) Study of the anti-cyclooxygenase (COX-1/COX-2) properties in isolated cells.
(§5) Response expressed as a % of the controls with relative response variability.

[5] = system: carrageenin-oedema; assay: Anti-inflammatory activity, carrageenin-oedema method; format: in vivo; conditions: rats, oral 3 to 30 mg/Kg in carboxymethylcellulose; natural product = 1.0
Method: as §6

[6] = biological target: T2, COX-1 (Bos taurus, UniProt O62664); assay: COX-1 inhibition in isolated cells; format: cell-based, bovine; conditions: read-out: COX-1 response, % of the controls with response variability
T2 construct: Endothelial cells of bovine aorta were used as a source of COX-1; endogenous in cells; host or cells: bovine aortic endothelial cells
T2 sequence (O62664 25-600): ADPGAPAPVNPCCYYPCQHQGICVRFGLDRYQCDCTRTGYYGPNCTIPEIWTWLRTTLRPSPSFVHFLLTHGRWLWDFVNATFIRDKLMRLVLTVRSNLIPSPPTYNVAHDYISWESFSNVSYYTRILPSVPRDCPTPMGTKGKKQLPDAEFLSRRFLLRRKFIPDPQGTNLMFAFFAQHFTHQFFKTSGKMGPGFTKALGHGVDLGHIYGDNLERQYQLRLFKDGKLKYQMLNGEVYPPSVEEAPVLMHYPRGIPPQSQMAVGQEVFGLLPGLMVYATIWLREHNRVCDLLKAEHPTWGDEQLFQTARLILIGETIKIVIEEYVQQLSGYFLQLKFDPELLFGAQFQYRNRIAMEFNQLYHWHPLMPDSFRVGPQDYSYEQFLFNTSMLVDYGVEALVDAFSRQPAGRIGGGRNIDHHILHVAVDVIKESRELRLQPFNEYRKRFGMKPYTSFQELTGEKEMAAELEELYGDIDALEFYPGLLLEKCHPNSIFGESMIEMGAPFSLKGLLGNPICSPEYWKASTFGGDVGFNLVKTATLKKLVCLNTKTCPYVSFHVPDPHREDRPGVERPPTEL
Method: as §1, §2, §4, §5

[7] = system: nitrosynthetase (NOS); assay: Nitrosynthetase (NOS) activity induced by LPS in rats; format: in vivo, rat; conditions: oral, LPS only = 100
Method: The nitrosynthetase inhibition activity induced by lipopolysaccharide (LPS) was determined in rat neutrophils and stomach after administration of one of the test compounds and compared with that obtained after treatment of the suspension vehicle only.
In brief, Wistar rats fasting for 24 hours before treatment were orally administered the test product (10 mg/Kg) and intravenously (caudal vein) administered LPS (5 mg/Kg).
Four hours later the animals were sacrificed and the blood--for neutrophils isolation--and the stomach taken.
Enzyme activity was determined in accordance with the method described by Assreuy et al. (Br. J. Pharmacol. 108, 833, 1993).
Study of the inhibitory properties of the nitrosynthetase (NOS) activity induced by liposaccharide (LPS) in rats using oral doses ranging from 5 to 20 mg/Kg suspended in a carboxymethylcellulose base.

[8] = system: human platelets stimulated by thrombin; assay: Platelet anti-aggregating activity in vitro; format: cell-based; conditions: 10^-5 to 10^-7 molar range, natural product = 1.0
Text: as §3

[9] = system: isolated rat aorta; assay: Vasodilative activity, inhibition of contraction induced by epinephrine; conditions: in vitro, 10^-5 to 10^-7 molar range
Text: as §3

[10] = system: gastric mucous membrane; assay: Gastric irritation of Tween 80 / dimethylsulphoxide suspensions; format: in vivo; conditions: suspension with Tween 80 and dimethylsulphoxide (0.1% and 1% for nitroxybutylflurbiprofen; lower amounts for NO-flurbiprofen derivative)
[11] = J774.2, read-out: COX-2 response, % of the controls with response variability

## O=C(Cc1ccccc1Nc1c(Cl)cccc1Cl)OCCOCCO[N+](=O)[O-] [Example 1b, 2-{N-[2,6-(dichloro)phenyl]amino}phenylacetate of 2-[2-(nitroxy)ethoxy]ethyl]
[1]; Table 4 data
  direct inhibition of cyclo-oxygenase COX-1 and COX-2: capable of directly inhibiting cyclo-oxygenase COX-1 and COX-2
[1]; in vitro, 10^-5 to 10^-7 molar range, natural product = 1.0
  anti-cyclooxygenase (I), potency ratio versus natural product: 1.8
[2]
  analgesic properties (II), potency ratio versus natural reference product: 0.9
[3]
  gastrointestinal tolerance (III) (toxicity), potency ratio versus natural reference product: 0.3
[4]; 0.1 mg/ml, macrophage line J774.2 with endotoxin, read-out: COX-2 response, % of the controls with response variability
  remaining activity at 100 µg/mL: 45 ± 3%
[4]; 1.0 mg/ml, macrophage line J774.2 with endotoxin, read-out: COX-2 response, % of the controls with response variability
  remaining activity at 1000 µg/mL: 22 ± 4%
[5]
  anti-inflammatory properties (I), potency ratio versus natural reference product: 1.3
[6]; 0.1 mg/ml, endothelial cells of bovine aorta
  remaining activity at 100 µg/mL: 49 ± 6%
[6]; 1.0 mg/ml, endothelial cells of bovine aorta
  remaining activity at 1000 µg/mL: 29 ± 4%
[7]; neutrophils
  NOS, neutrophils; inhibition relative to the group treated with LPS only: 52
[7]; stomach
  NOS, stomach; inhibition relative to the group treated with LPS only: 40
[8]
  platelet anti-aggregating (II), potency ratio versus natural product: 1.8
[9]
  vasodilative (III), % of inhibitory action of the vasospasm induced by epinephrine: 50%

## CC(C(=O)OCCCCO[N+](=O)[O-])c1ccc(-c2ccccc2)c(F)c1 (stereo not drawn) [FLURBIPROFEN NITROXYBUTYLESTER]
[4]; [11]
  remaining activity at 100 µg/mL: 46 ± 23%
  remaining activity at 1000 µg/mL: 22 ± 14%
[6]
  remaining activity at 100 µg/mL: 48 ± 18%
  remaining activity at 1000 µg/mL: 29 ± 13%
[10]
  irritant effect on gastric mucous membrane: irritant to the gastric mucous membrane
